Results reported in PubChem BioAssay AID248 (DTP/NCI, 2004).
Several values for one entry are separate records, joined by “and”; a condition that tells them apart may be missing. Equal values may be shown once. Toxic doses and inconclusive results are not listed.

System: L1210 leukemia ip in BDF1 mice, survival T/C
Assay: NCI In Vivo Anticancer Drug Screen. Data for tumor model L1210 Leukemia (intraperitoneal) in B6D2F1 (BDF1) mice
Settings: endpoint: mean survival time, higher = longer survival
Procedure, shortened: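 Each compound was tested against a transplantable tumor grown in mice. The endpoint was survival, with treated animals benchmarked against vehicle controls as a simple ratio.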

[1] = dose: 100.0 mg/kg/injection, schedule: Q01DX009 (ip), vehicle: Klucel (hydroxypropylcellulose) (HPC)
[2] = dose: 200.0 mg/kg/injection, schedule: Q01DX009 (ip), vehicle: Klucel (hydroxypropylcellulose) (HPC)
[3] = dose: 50.0 mg/kg/injection, schedule: Q01DX009 (ip), vehicle: saline with Tween-80
[4] = dose: 100.0 mg/kg/injection, schedule: Q01DX009 (ip), vehicle: saline with Tween-80
[5] = dose: 200.0 mg/kg/injection, schedule: Q01DX009 (ip), vehicle: saline with Tween-80

COCCOC1=C(N2CC2)C(=O)C(OCCOC)=C(N2CC2)C1=O
T/C (dose: 0.09 mg/kg/injection, schedule: Q01DX009 (ip), vehicle: saline): 96 % of control
T/C (dose: 0.17 mg/kg/injection, schedule: Q01DX009 (ip), vehicle: saline): 106 % of control
T/C (dose: 0.33 mg/kg/injection, schedule: Q01DX009 (ip), vehicle: saline): 153 % of control
T/C (dose: 0.66 mg/kg/injection, schedule: Q01DX009 (ip), vehicle: saline): 183 % of control
T/C (dose: 1.0 mg/kg/injection, schedule: Q01DX Z (ip), vehicle: saline): 117 % of control
T/C (dose: 1.25 mg/kg/injection, schedule: Q01DX001 (ip), vehicle: saline): 112 % of control
T/C (dose: 1.32 mg/kg/injection, schedule: Q01DX009 (ip), vehicle: saline): 150 % of control
T/C (dose: 2.0 mg/kg/injection, schedule: Q01DX Z (ip), vehicle: saline): 150 % of control
T/C (dose: 2.27 mg/kg/injection, schedule: Q01DX009 (ip), vehicle: saline): 153 % of control
T/C (dose: 3.0 mg/kg/injection, schedule: Q01DX001 (ip), vehicle: saline): 110 % of control
T/C (dose: 3.78 mg/kg/injection, schedule: Q01DX009 (ip), vehicle: saline): 195 % of control
T/C (dose: 4.0 mg/kg/injection, schedule: Q01DX Z (ip), vehicle: saline): 150 % of control
T/C (dose: 5.55 mg/kg/injection, schedule: Q01DX001 (ip), vehicle: saline): 106 % of control
T/C (dose: 6.0 mg/kg/injection, schedule: Q01DX001 (ip), vehicle: saline): 119 % of control
T/C (dose: 6.3 mg/kg/injection, schedule: Q01DX009 (ip), vehicle: saline): 185 % of control
T/C (dose: 8.0 mg/kg/injection, schedule: Q01DX Z (ip), vehicle: saline): 91 % of control
T/C (dose: 10.0 mg/kg/injection, schedule: Q01DX001 (ip), vehicle: saline): 150 % of control and 176 % of control

S=C(NP(=S)(NC(=S)OCCN1CC1)NC(=S)OCCN1CC1)OCCN1CC1
T/C (dose: 100.0 mg/kg/injection, schedule: Q01DX001 (ip), vehicle: carboxymethylcellulose (CMC)): 93 % of control
T/C (dose: 200.0 mg/kg/injection, schedule: Q01DX001 (ip), vehicle: carboxymethylcellulose (CMC)): 96 % of control

CC1(N(O)C(=O)NCCCl)CCCCC1
T/C (dose: 100.0 mg/kg/injection, schedule: Q01DX001 (ip), vehicle: saline with Tween-80): 109 % of control
T/C (dose: 200.0 mg/kg/injection, schedule: Q01DX001 (ip), vehicle: saline with Tween-80): 102 % of control
T/C (dose: 400.0 mg/kg/injection, schedule: Q01DX001 (ip), vehicle: saline with Tween-80): 93 % of control

Brc1cc(Br)c2[nH]c3c(Br)cc(Br)cc3c2c1
T/C [1]: 101 % of control
T/C [2]: 102 % of control

O=C(O)COc1ccc(/C=C/c2ccnc3ccccc23)cc1
T/C [1]: 94 % of control
T/C [2]: 99 % of control
T/C (dose: 400.0 mg/kg/injection, schedule: Q01DX009 (ip), vehicle: Klucel (hydroxypropylcellulose) (HPC)): 86 % of control

OCCC#CCCOC1CCCCO1 (configuration not stated)
T/C (dose: 100.0 mg/kg/injection, schedule: Q04DX002 (ip), vehicle: saline with Tween-80): 93 % of control
T/C (dose: 200.0 mg/kg/injection, schedule: Q04DX002 (ip), vehicle: saline with Tween-80): 103 % of control
T/C (dose: 400.0 mg/kg/injection, schedule: Q04DX002 (ip), vehicle: saline with Tween-80): 103 % of control

CNC(=O)Nc1ccc(S(=O)(=O)Nc2nc(C)cc(C)n2)cc1
T/C [3]: 96 % of control
T/C [4]: 96 % of control
T/C [5]: 93 % of control

O=Cc1occ(-c2ccccc2)c1-c1ccccc1
T/C (dose: 100.0 mg/kg/injection, schedule: Q04DX003 (ip), vehicle: Klucel (hydroxypropylcellulose) (HPC)): 94 % of control
T/C (dose: 200.0 mg/kg/injection, schedule: Q04DX003 (ip), vehicle: Klucel (hydroxypropylcellulose) (HPC)): 97 % of control
T/C (dose: 400.0 mg/kg/injection, schedule: Q04DX003 (ip), vehicle: Klucel (hydroxypropylcellulose) (HPC)): 98 % of control

O=c1oc(-c2ccc3c(c2)OCO3)nc2ccccc12
T/C [3]: 94 % of control
T/C [4]: 94 % of control
T/C [5]: 94 % of control

NC(=S)NCC12CC3CC(CC(C3)C1)C2
T/C (dose: 3.0 mg/kg/injection, schedule: Q04DX002 (ip), vehicle: Klucel (hydroxypropylcellulose) (HPC)): 101 % of control and 114 % of control
T/C (dose: 6.0 mg/kg/injection, schedule: Q04DX002 (ip), vehicle: Klucel (hydroxypropylcellulose) (HPC)): 106 % of control and 120 % of control
T/C (dose: 12.0 mg/kg/injection, schedule: Q04DX002 (ip), vehicle: Klucel (hydroxypropylcellulose) (HPC)): 112 % of control
T/C (dose: 12.5 mg/kg/injection, schedule: Q04DX002 (ip), vehicle: Klucel (hydroxypropylcellulose) (HPC)): 105 % of control
T/C (dose: 25.0 mg/kg/injection, schedule: Q04DX002 (ip), vehicle: Klucel (hydroxypropylcellulose) (HPC)): 101 % of control

CCCCOP(=O)(NNC=O)OCCCC
T/C (dose: 100.0 mg/kg/injection, schedule: Q04DX003 (ip), vehicle: saline): 96 % of control
T/C (dose: 200.0 mg/kg/injection, schedule: Q04DX003 (ip), vehicle: saline): 98 % of control
T/C (dose: 400.0 mg/kg/injection, schedule: Q04DX003 (ip), vehicle: saline): 95 % of control
